In PubChem BioAssay (NCI):
Where “and” joins values, the source holds several entries; their conditions need not be identical. Identical values can stand only once.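 Five compound concentrations were applied to cells in 96-well plates for 48 hours; endpoints were derived by simple linear interpolation of the resulting dose-response curve. Abbreviation: GI50, concentration required for 50% inhibition of growth. TGI: concentration producing complete growth inhibition.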

What was measured:
Experiment in all cases: inhibition of tumour cell growth, NCI panel, 48 h
[1] = test system: ACHN renal
[2] = test system: NCI-H460 lung
[3] = test system: UO-31 renal
[4] = test system: MDA-MB-435
[5] = test system: SW-620 colon
[6] = test system: HCT-116 colon
[7] = test system: U251 CNS
[8] = test system: MDA-MB-231 breast
[9] = test system: MALME-3M melanoma
[10] = test system: SF-539 CNS

Compound | GI50 [1] [µM] | TGI [1] | GI50 [2] [µM] | TGI [2] [µM] | GI50 [3] [µM] | TGI [3] | GI50 [4] [µM] | TGI [4] | GI50 [5] [µM] | TGI [5] | GI50 [6] [µM] | TGI [6] [µM] | GI50 [7] [µM] | TGI [7] | GI50 [8] [µM] | TGI [8] | GI50 [9] [µM] | TGI [9] | GI50 [10] [µM] | TGI [10]
CC(C)(C)c1cc(-c2nc3c(F)c(F)c(F)c(F)c3[nH]2)cc(C(C)(C)C)c1O | > 100 | > 100 µM | > 100 | > 100 | > 100 | > 100 µM | > 100 | > 100 µM | > 100 | > 100 µM | > 100 | > 100 | > 100 | > 100 µM | > 100 | > 100 µM | > 100 | > 100 µM | > 100 | > 100 µM
Nc1ncnc2c1ncn2C1OC(COC2C(CO)OC(OC(C(=O)O)C(O)C(OP(=O)(O)O)C(O)C(=O)O)C(O)C2O)C(O)C1O (stereo not drawn) | – | > 100 µM | – | > 100 | – | – | – | > 100 µM | – | > 100 µM | – | > 100 | – | > 100 µM | – | > 100 µM | – | > 100 µM | – | > 100 µM
c1ccc2c3c(ccc2c1)-c1c(ccc2c(NCCCCN4CCCCC4)cccc12)C3 | 1.61 | 2.99 µM | 2.08 | 6.74 | 2.61 | 7.66 µM | 1.91 | 3.31 µM | – | – | 1.63 | 2.98 | 1.77 | 3.16 µM | 0.599 | 2.21 µM | – | – | 1.79 | 3.44 µM
COc1cc(C)c(NC(=O)CN(C)C)cc1Nc1nc(Nc2cccc(F)c2C(N)=O)c2cc[nH]c2n1 | 3.81 | 7.35 µM | 0.604 | 4.49 | 3.33 | 7.08 µM | 0.161 | 2.56 µM | 0.168 | 3.49 µM | 0.686 | 4.31 | 3.12 | 6.86 µM | 2.66 | 6.72 µM | 1.91 | 7.47 µM | 3.05 | 7.07 µM
O=C(O)CCSC(=S)Nc1ccc([N+](=O)[O-])cc1 | – | > 83 µM | – | > 100 | – | > 100 µM | – | 61.3 µM | – | > 100 µM | – | > 100 | – | > 100 µM | – | > 100 µM | – | > 100 µM | – | > 75.5 µM
Fc1cccc(-c2[nH]nc3nc(Nc4cccnc4)sc23)c1 | 56.6 | > 100 µM | 2.38 | > 100 | 95.1 | > 100 µM | 0.28 | > 100 µM | 35.6 | > 100 µM | 0.595 | 51.1 | 1.01 | > 100 µM | 35.2 | > 100 µM | 39.8 | > 100 µM | 3.02 | > 100 µM
COC1=C(OC)[C@]2(OC)c3c(O)c(OC)c4c(c3O[C@@]23O[C@@H](c2ccccc2)CC=C3C1=O)[C@@H](O)C[C@H](c1ccccc1)O4 | 0.819 | 2.06 µM | 1.42 | 2.97 | 1.33 | 2.6 µM | 0.27 | 0.87 µM | 0.173 | 0.334 µM | 0.183 | 0.38 | 1.8 | 3.55 µM | 0.234 | 0.911 µM | 0.377 | 1.33 µM | 0.934 | 2.5 µM
Nc1ccc(-c2ccc(-c3nc4cc(Cl)c(Cl)cc4[nH]3)cc2)cc1 | 0.0833 | > 34.8 µM | 0.878 | > 31.9 | 0.674 | 13.3 µM | 0.199 | > 84.7 µM | < 0.0313 | > 100 µM | 0.503 | > 100 | 12 | > 53.1 µM | 3.34 | > 49.6 µM | 8.02 | > 63.4 µM | 1.38 | > 51.5 µM
CCCCCC/C=C1\CCC(CN(C)C)C1=O (stereo not drawn) | – | 22.2 µM | – | 35.1 | – | 28.9 µM | – | 21.6 µM | – | 6.49 µM | – | 9.55 | – | 9.47 µM | – | 18 µM | – | 20.7 µM | – | 28.1 µM
O=C(O)c1ccccc1Nc1ccc2nnc(-c3ccncc3)n2n1 | 4.24 | 17.4 µM | 4.27 | 24 | 3.81 | 15.5 µM | 4.02 | 23.1 µM | 6.48 | 36 µM | 4.09 | 21 | 13.3 | 28 µM | 5.27 | 24.2 µM | 7.97 | 26.3 µM | 14.6 | 55.8 µM
N#CSc1ccc(S(N)(=O)=O)cc1 | – | > 100 µM | – | > 100 | – | 35.2 µM | – | > 100 µM | – | 98.9 µM | – | > 100 | – | 38.1 µM | – | > 100 µM | – | > 100 µM | – | 68 µM
Oc1c(I)cc(I)cc1CN(Cc1ccccn1)Cc1ccccn1 | 0.502 | 6.98 µM | 0.456 | 8.68 | 0.554 | 3.07 µM | 2.19 | 18.7 µM | 0.847 | 23.5 µM | 0.666 | 12.4 | 0.419 | 11.7 µM | 1.86 | > 51.3 µM | 1.84 | 9.2 µM | 0.855 | 10 µM
CCCCCCNCCCNc1c2ccccc2nc2cccc([N+](=O)[O-])c12 | 0.0151 | 0.0446 µM and 0.0858 µM | – | 0.0218 | 0.145 | 0.393 µM and 0.331 µM | – | 0.0226 µM and 0.0234 µM | – | 0.115 µM and 0.734 µM | – | 1.36 | – | 0.0966 µM and 0.116 µM | 0.0151 | 0.0933 µM and 0.221 µM | 0.0168 | 0.0628 µM and 0.0572 µM | 0.0507 | 0.307 µM and 0.225 µM
Cc1cc(N(CCOS(C)(=O)=O)CCOS(C)(=O)=O)ccc1C=Nc1ccc(-c2csc(-c3ccc(Br)cc3)n2)cc1 | – | 13.8 µM | – | 12.7 | – | 33.6 µM | – | 58.8 µM | – | > 100 µM | – | > 87.9 | – | 60.5 µM | – | 39.2 µM | – | 67.2 µM | – | 9.64 µM
COc1cc(/C=C2\C[C@H]3[C@@H]4CC=C5C[C@@H](OC(C)=O)CC[C@]5(C)[C@H]4CC[C@]3(C)[C@H]2OC(C)=O)ccc1OCCN1CCCCC1 | 9.28 | 16.8 µM | 15.8 | > 50 | 11.1 | 29.1 µM | 14.4 | 44.4 µM | 11.2 | > 50 µM | – | – | 8.76 | 16.5 µM | 11 | 25.4 µM | – | – | 9.56 | 20.6 µM
O=S(=O)(CCCCl)SCCCCl | – | > 100 µM | – | > 100 | – | > 100 µM | – | > 67.2 µM | – | 42.3 µM | – | 51.1 | – | > 69.3 µM | – | 69.4 µM | – | > 83.8 µM | – | 53.4 µM
COc1cc(N2CCC(N3CCN(C)CC3)CC2)ccc1Nc1ncc(Cl)c(Nc2ccccc2S(=O)(=O)C(C)C)n1 | 0.76 | 2.61 µM | 0.604 | 5.11 | 1.12 | 2.44 µM | 0.387 | 2.36 µM | 0.337 | 2.52 µM | 0.358 | 1.64 | 1 | 2.4 µM | 0.705 | 2.43 µM | 1.32 | 3.46 µM | 1.39 | 2.74 µM
Cc1ccc2c(c1)C=CC(C#N)N2C(=O)Oc1ccccc1 (stereo not drawn) | – | 83.3 µM | – | > 100 | – | > 100 µM | – | 29.7 µM | – | > 100 µM | – | > 100 | – | 66.4 µM | – | > 100 µM | – | > 100 µM | – | > 100 µM
Oc1c(CN2CCN(c3ccccc3F)CC2)cc(Br)c2cccnc12 | 0.495 | 13.7 µM | 0.4 | 9.26 | 0.259 | 3.58 µM | 1.31 | > 100 µM | 0.47 | 20.2 µM | 0.546 | > 40.7 | 0.529 | 11.1 µM | 0.902 | 15.2 µM | 1.89 | 9.46 µM | 1.02 | 5.6 µM
Cc1c(-c2nnc(-c3cc(Cl)c(Cl)cc3Cl)o2)nnn1-c1ccnc2c(C(F)(F)F)cccc12 | 21.9 | 51.6 µM | 21.7 | 42.9 | 16.8 | 34.7 µM | 26.8 | 75.1 µM | 30.8 | > 100 µM | 17.9 | 34.8 | 19.3 | 37.4 µM | 20.2 | 53.2 µM | 19.2 | 51.1 µM | 18.5 | 34.4 µM
O=c1ccnc(SCc2ccc(Cl)cc2)[nH]1 | – | > 100 µM | – | > 100 | – | > 100 µM | – | > 100 µM | – | > 100 µM | – | > 100 | – | > 100 µM | – | > 100 µM | – | > 100 µM | – | > 100 µM
COc1ccc2nc(-c3cc4c([nH]c5ccccc54)c(-c4ccc(F)c(F)c4)n3)[nH]c2c1 | 3.2 | 12.6 µM | 2.97 | 12.5 | 1.46 | 16.1 µM | 3.69 | 15.4 µM | 4.82 | 23.7 µM | 2.05 | 4.11 | 2.77 | 10.2 µM | 10.4 | 34 µM | 16.3 | 34.3 µM | 15.5 | 34.6 µM
C=CCSSc1ncnc2c1ncn2C1OC(CO)C(O)C1O (stereo not drawn) | 3.34 | > 100 µM | 4.49 | > 100 | 3.63 | 16.8 µM | 2.38 | > 100 µM | 4.07 | 23.2 µM | 2.96 | > 45.4 | 13.5 | > 100 µM | 3.76 | > 100 µM | 2.48 | > 47.4 µM | 2.28 | 21 µM
Nc1nc(-c2ccccc2)cc(-c2ccc(Cl)cc2)c1-c1nc2ccccc2o1 | 11.1 | 23 µM | 7.44 | 23.6 | 8.36 | 21.3 µM | 17.6 | 35.3 µM | 14.9 | 29.3 µM | 7.41 | 20.2 | 9.2 | 21 µM | 6 | 18.9 µM | 19.2 | 35.3 µM | 17.5 | 32.3 µM
CC(=O)[O][Bi]([c]1ccccc1)[c]1ccccc1 | 11.8 | 24.4 µM | 18.1 | 36.4 | 2.08 | 7.01 µM | 7.26 | 22.2 µM | 2.27 | 5.45 µM | 4.29 | 13.7 | 2.6 | 10.9 µM | 14.4 | 28.4 µM | – | – | 11.1 | 24.3 µM
Cc1cc2nc(C(Cl)Cl)nc(-c3ccccc3)n2n1 | 1.87 | 5.12 µM | 1.97 | 5.13 | 5.02 | 21.6 µM | 5.84 | 23.9 µM | 3.22 | 28 µM | 3.45 | 24 | 3.13 | 24.3 µM | 3.44 | 20.9 µM | 9.11 | 28.1 µM | 3.94 | 25 µM
CC[CH2][Sn]([CH2]CC)([O]C(=O)Cc1ccc(F)cc1)[O][Sn]([CH2]CC)([CH2]CC)[O]C(=O)Cc1ccc(F)cc1 | 0.209 | 0.552 µM | 1.34 | 2.7 | 0.482 | 1.65 µM | 0.393 | 1.61 µM | 0.0773 | 0.22 µM | 0.218 | 0.796 | 0.131 | 0.431 µM | 0.406 | 1.76 µM | 0.102 | 0.291 µM | 0.274 | 0.769 µM
CC1=CC(=O)c2ccc(C)cc2C1=O | – | 21 µM | – | 32.4 | – | 24.6 µM | – | 5.78 µM | – | 30.4 µM | – | 15.1 | – | 25.7 µM | – | 24.2 µM | – | – | – | 30 µM
